The values below come from patent publication US10865191B2, “Heterocyclic compounds useful as modulators of TNF alpha” (BRISTOL-MYERS SQUIBB COMPANY, priority 2015, dated 2020).

Sequence of TNFα (P01375 77-233 limits assumed): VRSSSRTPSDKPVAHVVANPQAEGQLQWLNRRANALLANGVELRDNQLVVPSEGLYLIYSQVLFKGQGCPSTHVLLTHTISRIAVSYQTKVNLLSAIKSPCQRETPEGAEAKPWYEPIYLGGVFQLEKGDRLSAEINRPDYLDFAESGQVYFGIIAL

The test has as its target TNFα (Homo sapiens, UniProt P01375). Put plainly: TNF induced HEK-Blue assay (NF-kB-driven secreted alkaline phosphatase reporter). The note with it: TNFα 0.5 ng/mL, HEK-Blue-CD40L cells, 18 h; read-out: TNF induced HEK-Blue assay IC50 value. The class given is cell-based. The gist of the method: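 HEK-Blue-CD40L cells (NF-kB-driven SEAP reporter), 20,000/well, added after 30 min pre-incubation of compound (0.004–25 μM final) with TNFα 0.5 ng/mL final at 37 °C; 18 h incubation. SEAP read with QUANTI-Blue at 620 nm; IC50 from 4-parameter logistic fit, normalized to unstimulated and stimulated DMSO controls.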
As for `Cc1ccc(-c2ccc(F)c([C@@H](C)Nc3c(Cl)cnc4ccccc34)c2)cn1` [Example 518, (R)-3-chloro-N-(1-(2-fluoro-5-(6-methylpyridin-3-yl)phenyl)ethyl)quinolin-4-amine], the IC50 (as a rule, the point on the concentration scale where inhibition reaches its midpoint) is less than 1 µM.

On to `C[C@@H](Nc1c(Cl)cnc2ccccc12)c1cc(-c2cnc(C3CC3)nc2)ccc1F` [Example 519, (R)-3-chloro-N-(1-(5-(2-cyclopropylpyrimidin-5-yl)-2-fluorophenyl)ethyl) quinolin-4-amine], for which the half-maximal inhibitory concentration (IC50) was in the range of 1 to 10 µM. On to `COc1ncc(-c2ccc(F)c([C@@H](C)Nc3c(Cl)cnc4ccccc34)c2)cc1C#N` [Example 520, (R)-5-(3-(1-((3-chloroquinolin-4-yl)amino)ethyl)-4-fluorophenyl)-2-methoxynicotinonitrile], for which the IC50 was less than 1 µM.

For `COc1ncc(-c2ccc(F)c([C@@H](C)Nc3c(Cl)cnc4ccccc34)c2)cc1N` [Example 521, (R)—N-(1-(5-(5-amino-6-methoxypyridin-3-yl)-2-fluorophenyl)ethyl)-3-chloroquinolin-4-amine], the IC50 is less than 1 µM. With `COc1cncc(-c2ccc(F)c([C@@H](C)Nc3c(Cl)cnc4ccccc34)c2)c1` [Example 522, (R)-3-chloro-N-(1-(2-fluoro-5-(5-methoxypyridin-3-yl)phenyl)ethyl)quinolin-4-amine] the figure was less than 1 µM; with `CNc1ccncc1-c1ccc(F)c([C@@H](C)Nc2c(Cl)cnc3ccccc23)c1` [Example 523, (R)-3-chloro-N-(1-(2-fluoro-5-(4-(methylamino)pyridin-3-yl)phenyl)ethyl)quinolin-4-amine], less than 1 µM; with `C[C@@H](Nc1c(Cl)cnc2ccccc12)c1cc(-c2cncn2C)ccc1F` [Example 524, (R)-3-chloro-N-(1-(2-fluoro-5-(1-methyl-1H-imidazol-5-yl)phenyl)ethyl)quinolin-4-amine], less than 1 µM. Then `C[C@@H](Nc1c(Cl)cnc2ccccc12)c1cc(-c2ccnc3[nH]ccc23)ccc1F` [Example 525, (R)-3-chloro-N-(1-(2-fluoro-5-(1H-pyrrolo[2,3-b]pyridin-4-yl)phenyl)ethyl) quinolin-4-amine], with 1 to 10 µM; and `C[C@@H](Nc1c(Cl)cnc2ccccc12)c1cc(-c2cccc(N)c2)ccc1F` [Example 526, (R)—N-(1-(3′-amino-4-fluoro-[1,1′-biphenyl]-3-yl)ethyl)-3-chloroquinolin-4-amine], with 1 to 10 µM; and `COc1cc(-c2ccc(F)c([C@@H](C)Nc3c(Cl)cnc4ccccc34)c2)c(F)cn1` [Example 527, (R)-3-chloro-N-(1-(2-fluoro-5-(5-fluoro-2-methoxypyridin-4-yl)phenyl)ethyl)quinolin-4-amine], with 1 to 10 µM. Then `C[C@@H](Nc1c(Cl)cnc2ccccc12)c1cc(-c2cc3ccccc3[nH]2)ccc1F` [Example 528, (R)-3-chloro-N-(1-(2-fluoro-5-(1H-indol-2-yl)phenyl)ethyl)quinolin-4-amine], with 1 to 10 µM. On to `Cc1ccncc1-c1ccc(F)c([C@@H](C)Nc2c(Cl)cnc3ccccc23)c1` [Example 529, (R)-3-chloro-N-(1-(2-fluoro-5-(4-methylpyridin-3-yl)phenyl)ethyl)quinolin-4-amine], for which the IC50 was less than 1 µM. Then `Cc1nc2ccccc2c(N[C@H](C)c2cc(-c3cncnc3)ccc2F)c1Cl` [Example 530, (R)-3-chloro-N-(1-(2-fluoro-5-(pyrimidin-5-yl)phenyl)ethyl)-2-methylquinolin-4-amine], with less than 1 µM. On to `Cc1nc2ccccc2c(N[C@H](C)c2cc(-c3cccnc3)ccc2F)c1Cl` [Example 531, (R)-3-chloro-N-(1-(2-fluoro-5-(pyridin-3-yl)phenyl)ethyl)-2-methylquinolin-4-amine], for which the IC50 was less than 1 µM. In the case of `C[C@@H](Nc1c(Cl)cnc2ccc(Br)cc12)c1cc(-c2cncnc2)ccc1F` [Example 532, (R)-6-bromo-3-chloro-N-(1-(2-fluoro-5-(pyrimidin-5-yl)phenyl)ethyl)quinolin-4-amine], the IC50 was less than 1 µM.
